# Tests used:
# viral RT = biological target: T1, viral RT (Human immunodeficiency virus type 1 group M subtype B, UniProt P04585); test: Reverse transcriptase (RT) inhibition, Lenti RT Activity kit; type: biochemical, HIV; conditions: 25 μM
# T1 construct: endogenous in cells; host or cells: viral sample (virus-containing supernatant; probably from PMA-induced ACH-2 cells, inferred)
# Experimental: The ability of the compounds to inhibit the activity of viral RT was determined by a Lenti RT Activity kit (Cavidi, Uppsala, Sweden) according to the manufacturer's instructions (protocol A): A poly-A plate was incubated with the reaction buffer for up to 1 h at 33° C. Afterwards, the viral sample together with NACA, an inhibition control (nevirapin) or a vehicle control (DMSO) were added and incubated overnight at 33° C. The plate was washed, exposed to the tracer for 90 min at 33° C. and washed again, before the substrate was added. The plate was incubated in the dark and subsequently read at 405 nm in a Multiskan RC (Labsystem).
# For the data shown in FIG. 13A, a poly-A plate was incubated with the reaction buffer and subsequently, the viral sample (1:500 dilution) together with the NACA, nevirapin (inhibition control) or DMSO (vehicle control) was added and incubated overnight. The plate was exposed to the tracer and the substrate was added. The plate was incubated in the dark and read at 405 nm. The value for the vector control (DMSO) was set to 100% in each individual repeat and all other values were normalized to this reference value. The data shown in FIG. 13A are means of three independent experiments; the error bars represent the SEM. P-values are indicated if significant (*: p<0.05; **: p<0.01; ***: p<0.001).
# CEM cells [1] = test: Cytostatic activity assay (cell proliferation, Coulter counter); type: cell-based; conditions: Homo sapiens, CCRF-CEM, 72 h, 50% inhibitory concentration of cell proliferation
# Experimental: The cytostatic activity assay was performed in 96-well microliter plates. 5-7.5×10^4 cells and a given amount of the test compound were added to each well. The cells were allowed to proliferate for 72 h at 37° C. is a humidified CO2-controlled atmosphere. At the end of the incubation period, the cells were counted in a Coulter counter. The IC50 (half maximal inhibitory concentration) was defined as the concentration of the compound that inhibited cell proliferation by 50%.
# CEM cells [2] = test: Viability test (trypan blue); type: cell-based, Human; conditions: concentrations up to 10 mM
# Experimental: CEM cells (3×10^5 cells/ml) were seeded and grown in the presence or absence of indicated concentrations of NACA. The medium was replaced and added new NACA after two days. After 48 and 96 hours, respectively, aliquots of the cells were harvested and combined with trypan blue dye before analyzed microscopically on a hemocytometer counting chamber. Blue cells were counted as nonviable and to estimate the amount of viable cells the amount of live cells was compared to the total amount of cells.
# [3] = biological target: T2, recombinant HIV-1 protease (Human immunodeficiency virus type 1 group M subtype B, UniProt P04585); test: Protease inhibition, SensoLyte HIV-1 protease assay kit; type: biochemical
# T2 construct: Recombinant HIV-1 protease was purchased from AnaSpec Inc; purchased AnaSpec Inc
# Experimental: The ability of NACA to inhibit the activity of recombinant HIV-1 protease was determined by a SensoLyte […] HIV-1 protease assay kit (AnaSpec Inc.) according to manufacturer's instructions: The compounds and the HIV-1 protease were added to a dark-bottom 96 well plate and the following controls were included: positive control (without NACA), inhibition control (pepstatin A), vehicle control (DMSO), NACA controls (to test for autofluorescence) and substrate control (assay buffer only). The plate as well as the HIV-1 protease substrate solution were incubated 15 minutes at 37° C. and 50 μl protease substrate was added to all wells. The fluorescence was measured at Ex/Em=490 nm/520 nm with a Varioskan Flash (Thermo Electron Corporation).
# For the data shown in FIG. 13B, the HIV-1 protease together with NACA, a positive control (pepstatin A) or DMSO (vehicle control) were added to a dark-bottom 96 well plate. The plate as was incubated and protease substrate was added to all wells. The fluorescence was measured at Ex/Em=490 nm/520 nm. The value for the vector control (DMSO) was set to 100% in each individual repeat and all other values were normalized to this reference value. The data are means of three independent experiments; the error bars represent the SEM. P-values are indicated if significant (*: p<0.05; **: p<0.01; ***: p<0.001).
# HIV infected PBMCs = test: Cell viability of HIV infected PBMCs; type: cell-based; conditions: varying concentrations of NACA
# Experimental: (§1) Peripheral blood mononuclear cells (PBMC) were acutely infected with HIV-1 and stimulated with NACA. Cell viability was measured in HIV infected PBMCs with varying concentrations of NACA.
# HIV-1 = test: HIV replication in acutely infected PBMC / lymphocytes; type: cell-based
# Experimental: In some embodiments, the present invention relates to a method for inhibiting HIV replication. Data is attached reporting the results of an HIV study in lymphocytes with 100% block of replication at 20 mM concentration.
# as §1
# p24 in ACH-2 cells = test: Production of viral particles (p24) in PMA-stimulated ACH-2 cells; type: cell-based, HIV; conditions: ACH-2 cells with PMA, 3 days, indicated amounts of NACA
# Experimental: ACH-2 cells (1×10^6 cells/ml) were cultured with 100 nM PMA. After three days the cell culture supernatant was collected, cleared by centrifugation at 300×g for 10 min and passed through a 0.45 μm filter. p24 content was measured in an Architect i2000SR (Abbott Laboratories, Ill., USA) as a measurement for virus content and supernatant was either used directly or frozen at −80° C. for later usage.
# (§2) To measure the infectivity of particles produced in the presence of the compounds, ACH-2 cells (1×10^6 cells/ml) were cultured with 100 nM PMA in the presence of the indicated amount of NACA or DMSO (negative control). After 3 days, the p24 content of the clarified supernatant (see 2.3 Virus expression) was measured. The supernatant was used for an infectivity test (see 2.4 Infectivity test) without the addition of any compound to the wells. The final dilution of the viral supernatant in the infectivity test was 1:100. A control experiment was performed, in which virus particles produced without the addition of NACA, were used for the infectivity test.
# For the data in FIG. 15A, ACH-2 cells were cultured with […] in the presence of the indicated amount of NACA, DMSO (vector control=0 mM NACA) or no additive (control). After 3 days, the supernatant was clarified and the amount of p24 was measured by ELISA. […] P-values were calculated between the vehicle control and the individual treatments. […]
# HIV particles = test: Infectivity of viral particles produced in the presence of NACA (TZM-b1 luciferase); type: cell-based
# Experimental: as §2
# For the data in FIG. 15B, the clarified supernatant was further used for an infectivity test without the addition of any compound to the wells. The NACA amount stated in the graph refers to the amount in which the HIV producing cells were grown. TZM-b1 cells were infected with the diluted virus suspensions in a total of 0.2 ml DMEM (total dilution of virus supernatant: 1:100). After 40 h, the cells were assayed for luciferase activity. Additionally, a control experiment was performed, in which virus particles produced in the control set up, were used for the infectivity test. The same amount of NACA that could have been carried over with the virus containing supernatant in the original experiment was added to the infectivity test (final concentration: 1/100 of the indicated amount in the viral growth culture). The value for the control was set to 100% in each individual repeat and all other values were normalised these reference values. The data are means of three independent experiments; the error bars represent the SEM. P-values were calculated between the vehicle control and the individual treatments. P-values are indicated if significant (*: p<0.05; **: p<0.01; ***:p<0.001).
# [4] = tested on: Chronically HIV-infected U1 cells (monocytes); test: Reverse transcriptase (RT) activity as readout of virion production in chronically HIV-infected U1 cells; type: cell-based
# U1 cells = test: U1 cell viability and proliferation ([3H]-thymidine incorporation); type: cell-based; conditions: HIV-infected U1 cells
# Experimental: Chronically HIV-infected U1 cells (monocytes) were stimulated for 6 hours in the presence of NACA. Cytokines (IL-6, […]) or PMA were added and maintained in the cell cultures for 6 days, collecting supernatants daily. Cell viability and proliferation were checked by optical microscopy, and [3H]-thymidine incorporation, and calcein AM assay. Reverse transcriptase-polymerase chain reaction (RT-PCR) and reverse transcriptase (RT) activity assay as readout of virion production.
# [5] = tested on: viral integration in TZM-b1 cells; test: Infectivity assay in TZM-b1 cells (luciferase; viral integration); type: cell-based, HIV-1; conditions: 10 mM; 40 h
# Experimental: 1×10^5 TZM-b1 cells were infected with diluted virus suspension (see 2.3 Virus expression) in a total of 0.2 ml DMEM medium in the presence of NACA, an inhibition control (nevirapin) or a vehicle control (DMSO). After 40 h at 37° C., the cells were assayed in a Luminoskan Ascent (Thermo Labsystems) for luciferase activity using the OneGlo luciferase assay system (Promega).
# To determine additional targets of NACA inhibition within early stage processes of viral integration (viral entry to integration into the host genome), an infectivity assay was performed. TZM-b1 cells contain a luciferase gene that is under control of the HIV-1 promoter. Upon viral entry, transcription and integration into the host genome, luciferase is expressed and can convert the added substrate to the fluorescent product. The amount of measured product is quantitatively correlated to the amount of integrated virus in the test culture.
# For the data in FIG. 14, TZM-b1 cells were infected with a diluted virus suspension in a total of 0.2 ml DMEM medium in the presence of the 25 μM or 10 mM NACA, an inhibition control (nevirapin) or a vehicle control (DMSO). Additionally, one well was treated with medium only instead of the virus dilution (no virus, negative control). After 40 h, the cells were assayed for luciferase activity. […] P-values were calculated between the vehicle control and the individual treatments. […]
# HIV-1 (IIIB) = test: Inhibition of HIV-1 replication in CEM cells (giant cell / syncytia formation); type: cell-based; conditions: for EC50: concentration required to protect CEM cells against the cytopathogenicity of HIV by 50%, HIV-1 (IIIB)
# Experimental: (§3) CEM cells were suspended in fresh culture medium and infected with HIV-1 (IIIB) or HIV-2 (ROD) at 100 CCID50 per ml of cell suspension. 100 μl of the infected cell suspension were transferred to microplate wells, mixed with 100 μl of the appropriate dilutions of compounds, and further incubated at 37° C. After 4 days, giant cell formation was recorded microscopically and the number of giant cells was estimated as percentage of the number of giant cells present in the non-treated virus-infected cell cultures.
# HIV-2 (ROD) = test: Inhibition of HIV-2 replication in CEM cells (giant cell / syncytia formation); type: cell-based; conditions: for EC50: concentration required to protect CEM cells against the cytopathogenicity of HIV by 50%, HIV-2 (ROD)
# Experimental: as §3
smiles,measurement,setting,value
CC(=O)N[C@@H](CS)C(N)=O,effect on viral RT activity,viral RT,no effect
same,IC50,CEM cells [1],~564 µM
same,CEM cells alive,CEM cells [2],more than 99%
same,effect on viral protease activity,[3]; 25 μM,no effect
same,effect on protease activity,[3]; 10 mM,significant effect
same,cell viability,HIV infected PBMCs,did not affect cell viability
same,effect on HIV replication,HIV-1; HIV infected PBMCs,inhibitor effect
same,HIV replication inhibited,"HIV-1; HIV infected PBMCs, concentrations of 10 mM and above",~100%
same,block of replication,"HIV-1; lymphocytes, 20 mM concentration",100%
same,amount of p24,p24 in ACH-2 cells,not affected
same,effect on infectivity when NACA was added after the production of the viral particles (NACA added),HIV particles; final concentration 1/100 of the indicated amount,not visible
same,infectivity of the particles produced in the presence of NACA (NACA grown),HIV particles; higher concentrations (5 mM to 10 mM),decreased significantly
same,infectivity of the particles produced in the presence of NACA (NACA grown),HIV particles; low concentrations (0 mM to 1 mM),auxiliary effect
same,reverse transcriptase activity,[4]; U1 cells activated with 1 ng/mL TNF-α or 10 ng/mL IL-6,significant reduction
same,concentration effective in reducing HIV replication in activated U1 cells (RT activity),"[4]; U1 cells activated with 1 ng/mL TNT-α, 10 ng/mL IL-6 or 10 nM PMA",1 to 10 µM
same,relative amounts of reverse transcriptase activity,"[4]; U1 cells, between days 3 and 5",did not alter
same,concentration effective in reducing HIV replication in activated U1 cells,[4]; activated U1 cells,10 to 333 µM
same,U1 cell viability or proliferation as measured by [3H]-thymidine incorporation,U1 cells,did not have a large effect
same,effect on viral integration,[5],more predominant effect
same,Ratio IC50/EC50 (CEM) HIV-1,HIV-1 (IIIB); CEM cells,3
same,EC50,"HIV-1 (IIIB); Human immunodeficiency virus 1, IIIB, CCRF-CEM",~230 µM
same,EC50,HIV-1 (IIIB),224 ± 86 µM
same,Ratio IC50/EC50 (CEM) HIV-2,HIV-2 (ROD); CEM cells,2
same,EC50,"HIV-2 (ROD); Human immunodeficiency virus 2, CCRF-CEM",~230 µM
same,EC50,HIV-2 (ROD),234 µM

# Source: patent publication US20200170968A1 (priority 2014, published 2020)
